From patent publication US9352015B2, “Antimicrobial peptides” (priority 2009, dated 2016)
In brackets after ≈: the same amount, converted by molar mass. Several values for one entry are separate records, joined by “and”; a condition that tells them apart may be missing. Identical values can stand only once. Like-named read-outs stand apart in the source and are kept apart here.

Key:
[1] = system: Methicillin Resistant Staphylococcus aureus (MRSA) and Staphylococcus aureus; assay type: cell-based
Description: (§1) Minimal inhibitory concentrations (MICs) are determined using a standard microtiter dilution method, with 3 sets of determinations, in LB (Luria-Bertani) no-salt medium (10 g of tryptone and 5 g of yeast extract per liter). In some cases, Mueller Hinton (MH) medium or Brain Heart Infusion (BHI) medium is used.
(§2) Briefly, cells were grown overnight at 37° C. in LB and diluted in the same medium. Serial dilutions of the peptides are added to the microtiter plates in a volume of 100 μl followed by 10 μl of bacteria to give a final inoculum of 5×10^5 colony-forming units/ml. Plates are incubated at 37° C. for 24 hours and MICs determined as the lowest peptide concentration that inhibited growth. Alternatively, minimal inhibitory concentrations are determined using a standard microtiter dilution method in a Mueller-Hinton (MH) medium. Briefly, cells are grown overnight at 37° C. in MH broth and diluted in the same medium. In some cases, serial dilutions of the peptides are added to the microtiter plates in a volume of 100 μl followed by 10 μl of bacteria to give a final inoculum of 1×10^5 colony-forming units/ml. Plates are incubated at 37° C. for 24 hours and MICs are determined as the lowest peptide concentration that inhibited growth.
Identification of Antimicrobial Peptides for Gram-positive Bacteria. In a manner similar to testing against gram-negative bacteria, experiments were carried out to screen the 14 peptides used to identify antimicrobial peptides with significant activity against A. baumanii shown above against 20 different clinical isolates of Methicillin Resistant Staphylococcus aureus (MRSA) and Staphylococcus aureus.

Pseudomonas aeruginosa = details: for Pseudomonas aeruginosa MICGM: geometric mean, 6 different isolates, 24 hours at 37° C.; for MIC PAO 1: 37° C., 24 h, strain PAO1; for MIC GM (geometric mean of the MIC values): six P. aeruginosa strains; for MIC CP 204: strain CP204; for MIC M 2: strain M2; for MIC PA 14: strain PA14; for MIC PAK: strain PAK; for MIC WR 5: strain WR5
Acinetobacter baumannii = assay type: cell-based; details: for Acinetobacter baumannii MICGM: geometric mean, 11 different isolates, 24 hours at 37° C.
Description: as §1, §2
The biological activities of these six peptide analogs was determined against 11 clinical isolated of Acinetobacter baumannii (Table 9). Please note that the activities are reported in micromolar rather than microgram/ml. This allows a direct comparison on a molar basis with the effectiveness of molecules of different molecular weights whether peptides disclosed herein or antibiotics which in general are smaller in molecular mass. […] These are the highest antimicrobial activities observed in studies of antimicrobial peptides derived by modifying the peptide sequence of SEQ ID NO:24 (D1). D22 has the best hemolytic activity of the six analogs (D17-D22) and a therapeutic index of […] compared to […] for D1 (Table 9). D22 has no apparent advantage over D1 as determined in these experiments.

[2] = Hemolytic activity against human erythrocytes (HC50 / MHC, microtiter dilution); assay type: cell-based; details: human, 1% human erythrocytes, pH 7.4
Description: Hemoglobin release was determined spectrophotometrically at 570 nm. The hemolytic activity was determined as the peptide concentration that caused 50% hemolysis of erythrocytes after 18 h (HC50). […] HC50 was determined by a plot of peptide concentration versus percent lysis.

[3] = RP-HPLC retention as measure of overall peptide hydrophobicity; assay type: physicochemical; details: for Change in hydrophobicity (retention time) relative to PVL: 80° C., polar face substitution
Description: Crude and purified peptides were analyzed on an Agilent 1100 series liquid chromatograph (Little Falls, Del.). Runs were performed on a Zorbax 300 SB-C8 column (150×2.1 mm I.D.; 5 μm particle size, 300 Å pore size) from Agilent Technologies using linear AB gradient (1% acetonitrile/min) and a flow rate of 0.25 ml/min, where eluant A was 0.2% aqueous TFA, pH 2 and eluant B was 0.2% TFA in acetonitrile.

[4] = RP-HPLC temperature profiling (peptide self-association parameter PA); assay type: physicochemical; details: enantiomer pairs of V681 analogs, 5° C. to 80° C., relative to peptide C
Description: Temperature profiling analyses were performed on the same column in 3° C. increments, from 5° C. to 80° C., using a linear AB gradient of 0.5% acetonitrile/min, as described previously (30, 53, 92, 93).
Peptide self-association (i.e., the ability to oligomerize/dimerize) in aqueous solution is a very important parameter for antimicrobial activity (53, 92, 93). Without wishing to be bound by any particular theory, the present inventors postulated that monomeric random-coil antimicrobial peptides are best suited to pass through the capsule and cell wall of microorganisms prior to penetration into the cytoplasmic membrane, induction of α-helical structure and disruption of membrane structure to kill target cells (93). Thus, if the self-association ability of a peptide in aqueous media is too strong (e.g., forming stable folded dimers through interaction of their non-polar faces) this could decrease the ability of the peptide to dissociate to monomer, in addition oligomerization of the peptide can prevent it from effectively passing through the capsule and cell wall to reach the membrane. The ability of the peptides in the present study to self-associate was determined by the technique of RP-HPLC temperature profiling at pH 2 (29, 30, 38). The reason pH 2 is used to determine self-association of cationic AMPs is that highly positively charged peptides are frequently not eluted from reversed-phase columns at pH 7 due to non-specific binding to negatively charged silanols on the column matrix. This is not a problem at pH 2 since the silanols are protonated (i.e., neutral) and non-specific electrostatic interactions are eliminated. At pH 2, the interactions between the peptide and the reversed-phase matrix involve ideal retention behavior, i.e., only hydrophobic interactions between the preferred binding domain (nonpolar face) of the amphipathic molecule and the hydrophobic surface of the column matrix are present (39). […] Control peptide C is a monomeric random coil peptide in both aqueous and hydrophobic media; thus, its linear decrease in peptide retention behavior with increasing temperature within the range of 5° C. to 80° C. represents only the general effects of temperature due to greater solute diffusivity and enhanced mass transfer between the stationary and mobile phase at higher temperatures (55). To allow for these general temperature effects, the data for the control peptide was subtracted from each temperature profile as shown in FIG. 2B. Thus, the peptide self-association parameter, PA, represents the maximum change in peptide retention time relative to the random coil peptide C. Note that the higher the PA value, the greater the self-association.

Question: Which “MIC GM (geometric mean)” value [1] does the source give for `CC[C@@H](C)[C@@H](NC(=O)[C@@H](CC(C)C)NC(=O)[C@@H](CCCCN)NC(=O)[C@@H](CC(C)C)NC(=O)[C@@H](CC(C)C)NC(=O)[C@H](NC(=O)[C@@H](CCCCN)NC(=O)[C@@H](CC(C)C)NC(=O)[C@@H](CCCCN)NC(=O)[C@@H](CCCCN)NC(=O)[C@@H](CCCCN)NC(=O)[C@@H](CCCCN)NC(=O)[C@@H](CC(C)C)NC(=O)[C@@H](CCCCN)NC(=O)[C@@H](CO)NC(=O)[C@@H](Cc1ccccc1)NC(=O)[C@H](NC(=O)[C@@H](CCCCN)NC(=O)[C@@H](CC(C)C)NC(=O)[C@@H](Cc1ccccc1)NC(=O)[C@@H](CO)NC(=O)[C@@H](CCCCN)NC(=O)[C@@H](Cc1c[nH]c2ccccc12)NC(=O)[C@@H](CCCCN)NC(C)=O)[C@H](C)O)[C@H](C)O)C(=O)N[C@H](CO)C(=O)N[C@H](CCCCN)C(N)=O` [Peptide D12, Ac-KWKSFLKTFSKLKKKKLKTLLKLISK-amide] here?
Answer: 5.2 µM (≈ 16.7 µg/mL)

Question: What about the Pseudomonas aeruginosa MICGM (Pseudomonas aeruginosa) of the same compound?
Answer: 3.9 µM

Question: And the “MIC GM (geometric mean)” value (Acinetobacter baumannii)?
Answer: 1.9 µM (≈ 6.09 µg/mL)

Question: What about the Acinetobacter baumannii MICGM (Acinetobacter baumannii) of the same compound?
Answer: 1.9 µM

Question: And the HC50 at 18 h [2]?
Answer: 18.3 µM

Question: Which “MIC GM (geometric mean)” value [1] does the source give for `CC[C@@H](C)[C@@H](NC(=O)[C@@H](CC(C)C)NC(=O)[C@@H](CCCCN)NC(=O)[C@@H](CC(C)C)NC(=O)[C@@H](CC(C)C)NC(=O)[C@H](NC(=O)[C@@H](Cc1c[nH]cn1)NC(=O)[C@@H](CC(C)C)NC(=O)[C@@H](CCCCN)NC(=O)[C@H](NC(=O)[C@@H](CCCCN)NC(=O)[C@@H](CCCCN)NC(=O)[C@@H](CC(C)C)NC(=O)[C@@H](CO)NC(=O)[C@@H](CCCCN)NC(=O)[C@@H](Cc1ccccc1)NC(=O)[C@H](NC(=O)[C@@H](CCCCN)NC(=O)[C@@H](CC(C)C)NC(=O)[C@@H](Cc1ccccc1)NC(=O)[C@@H](CO)NC(=O)[C@@H](CCCCN)NC(=O)[C@@H](Cc1c[nH]c2ccccc12)NC(=O)[C@@H](CCCCN)NC(C)=O)[C@H](C)O)[C@H](C)O)[C@H](C)O)C(=O)N[C@H](CO)C(=O)N[C@H](CO)C(N)=O` [Peptide D5, Ac-KWKSFLKTFKSLKKTKLHTLLKLISS-amide] here?
Answer: 5.4 µM (≈ 17 µg/mL)

Question: And the “Hydrophobicity (retention time in RP-HPLC)” value ([3]; pH 2, room temperature)?
Answer: 80.44 min

Question: And the “MIC PAO 1” value (Pseudomonas aeruginosa; Brain Heart Infusion medium)?
Answer: 31.3 µg/mL (≈ 9.95 µM)

Question: And the “MIC GM (geometric mean of the MIC values)” value (Pseudomonas aeruginosa; Brain Heart Infusion medium)?
Answer: 22.1 µg/mL

Question: What about the “MIC CP 204” value (Pseudomonas aeruginosa; Brain Heart Infusion medium) of the same compound?
Answer: 31.3 µg/mL (≈ 9.95 µM)

Question: And the “MIC M 2” value (Pseudomonas aeruginosa; Brain Heart Infusion medium)?
Answer: 15.6 µg/mL (≈ 4.96 µM)

Question: What about the “MIC PA 14” value (Pseudomonas aeruginosa; Brain Heart Infusion medium) of the same compound?
Answer: 15.6 µg/mL (≈ 4.96 µM)

Question: And the “MIC PAK” value (Pseudomonas aeruginosa; Brain Heart Infusion medium)?
Answer: 31.3 µg/mL (≈ 9.95 µM)

Question: What about the “MIC WR 5” value (Pseudomonas aeruginosa; Brain Heart Infusion medium) of the same compound?
Answer: 15.6 µg/mL (≈ 4.96 µM)

Question: What about the “MIC PAO 1” value (Pseudomonas aeruginosa; Mueller Hinton medium) of the same compound?
Answer: 7.8 µg/mL (≈ 2.48 µM)

Question: And the “MIC GM (geometric mean of the MIC values)” value (Pseudomonas aeruginosa; Mueller Hinton medium)?
Answer: 11.0 µg/mL

Question: And the “MIC CP 204” value (Pseudomonas aeruginosa; Mueller Hinton medium)?
Answer: 15.6 µg/mL (≈ 4.96 µM)

Question: What about the “MIC M 2” value (Pseudomonas aeruginosa; Mueller Hinton medium) of the same compound?
Answer: 7.8 µg/mL (≈ 2.48 µM)

Question: What about the “MIC PA 14” value (Pseudomonas aeruginosa; Mueller Hinton medium) of the same compound?
Answer: 7.8 µg/mL (≈ 2.48 µM)

Question: And the “MIC PAK” value (Pseudomonas aeruginosa; Mueller Hinton medium)?
Answer: 15.6 µg/mL (≈ 4.96 µM)

Question: And the “MIC WR 5” value (Pseudomonas aeruginosa; Mueller Hinton medium)?
Answer: 15.6 µg/mL (≈ 4.96 µM)

Question: And the Pseudomonas aeruginosa MICGM (Pseudomonas aeruginosa)?
Answer: 3.5 µM

Question: What about the “MIC GM (geometric mean)” value (Acinetobacter baumannii) of the same compound?
Answer: 1.7 µM (≈ 5.35 µg/mL)

Question: What about the Acinetobacter baumannii MICGM (Acinetobacter baumannii) of the same compound?
Answer: 1.7 µM

Question: What about the HC50 at 18 h [2] of the same compound?
Answer: 47 µg/mL and 14.9 µM

Question: For “D-NAL: enantiomer of NAD, SEQ ID NO:25 (KWKSFLKTFKSAAKTVLHTALKAISS; not fully specified; D-amino acids)”, which “PA (peptide self-association parameter)” value [4] is on record?
Answer: 4.1

Question: For “PKL: V681 with L-Lys at position 11, SEQ ID NO:17 (KWKSFLKTFKKAVKTVLHTALKAISS)”, which “Change in hydrophobicity (retention time) relative to PVL” value [3] is on record?
Answer: -2.29 min

Question: Which “PA (peptide self-association parameter)” value [4] does the source give for “D-V681: D-enantiomer of V681 (KWKSFLKTFKSAVKTVLHTALKAISS; all D-amino acids)” here?
Answer: 7.2

Question: Which “Change in hydrophobicity (retention time) relative to PVL” value [3] does the source give for “PAL: V681 with L-Ala at position 11, SEQ ID NO:14 (KWKSFLKTFKAAVKTVLHTALKAISS)” here?
Answer: +0.45 min

Question: Which “MIC GM (geometric mean)” value [1] does the source give for `CC[C@@H](C)[C@@H](NC(=O)[C@@H](C)NC(=O)[C@@H](CCCCN)NC(=O)[C@@H](CC(C)C)NC(=O)[C@@H](CC(C)C)NC(=O)[C@H](NC(=O)[C@@H](CCCCN)NC(=O)[C@@H](CC(C)C)NC(=O)[C@@H](CCCCN)NC(=O)[C@@H](CCCCN)NC(=O)[C@@H](CCCCN)NC(=O)[C@@H](CCCCN)NC(=O)[C@@H](CC(C)C)NC(=O)[C@@H](CCCCN)NC(=O)[C@@H](CO)NC(=O)[C@@H](Cc1ccccc1)NC(=O)[C@H](NC(=O)[C@@H](CCCCN)NC(=O)[C@@H](CC(C)C)NC(=O)[C@@H](Cc1ccccc1)NC(=O)[C@@H](CO)NC(=O)[C@@H](CCCCN)NC(=O)[C@@H](Cc1c[nH]c2ccccc12)NC(=O)[C@@H](CCCCN)NC(C)=O)[C@H](C)O)[C@H](C)O)C(=O)N[C@H](CO)C(=O)N[C@H](CCCCN)C(N)=O` [Peptide D13, Ac-KWKSFLKTFSKLKKKKLKTLLKAISK-amide] here?
Answer: 8.6 µM (≈ 27.2 µg/mL)

Question: What about the Pseudomonas aeruginosa MICGM (Pseudomonas aeruginosa) of the same compound?
Answer: 2.5 µM

Question: What about the “MIC GM (geometric mean)” value (Acinetobacter baumannii) of the same compound?
Answer: 1.0 µM (≈ 3.16 µg/mL)

Question: And the Acinetobacter baumannii MICGM (Acinetobacter baumannii)?
Answer: 1 µM

Question: What about the HC50 at 18 h [2] of the same compound?
Answer: 106 µM
